How the values were obtained:
[1] = target: Rod cGMP-specific 3',5'-cyclic phosphodiesterase subunit alpha (Homo sapiens, UniProt P16499); assay type: functional
D(1B) dopamine receptor = D(1B) dopamine receptor (Homo sapiens, UniProt P21918)
Substance-K receptor = target: T1, Substance-K receptor (Homo sapiens, UniProt P21452)
T1 sequence (P21452 whole entry): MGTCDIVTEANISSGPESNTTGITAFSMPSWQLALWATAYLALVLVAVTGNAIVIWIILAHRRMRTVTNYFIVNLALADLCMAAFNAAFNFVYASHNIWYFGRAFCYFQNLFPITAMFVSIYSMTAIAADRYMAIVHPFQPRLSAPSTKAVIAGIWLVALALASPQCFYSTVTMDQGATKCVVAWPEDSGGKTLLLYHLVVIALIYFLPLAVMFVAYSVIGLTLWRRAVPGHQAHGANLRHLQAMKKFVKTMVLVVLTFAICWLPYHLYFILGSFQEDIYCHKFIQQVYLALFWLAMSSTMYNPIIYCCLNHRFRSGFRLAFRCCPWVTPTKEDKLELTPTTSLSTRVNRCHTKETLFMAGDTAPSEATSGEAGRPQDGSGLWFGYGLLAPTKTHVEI

[2] = target: 5-hydroxytryptamine receptor 5A (Homo sapiens, UniProt P47898)
Sequence of 5-hydroxytryptamine receptor 5A (P47898 whole entry): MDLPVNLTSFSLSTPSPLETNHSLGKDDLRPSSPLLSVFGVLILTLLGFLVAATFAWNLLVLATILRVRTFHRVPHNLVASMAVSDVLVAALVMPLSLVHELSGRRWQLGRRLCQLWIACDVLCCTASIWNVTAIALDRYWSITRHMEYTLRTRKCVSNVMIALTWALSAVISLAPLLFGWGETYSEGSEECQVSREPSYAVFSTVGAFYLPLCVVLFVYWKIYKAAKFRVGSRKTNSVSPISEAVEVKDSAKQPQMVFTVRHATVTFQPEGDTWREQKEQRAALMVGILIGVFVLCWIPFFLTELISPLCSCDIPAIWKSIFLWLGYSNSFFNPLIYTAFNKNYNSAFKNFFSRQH

[3] = target: T2, Muscarinic acetylcholine receptor M4 (Homo sapiens, UniProt P08173)
T2 sequence (P08173 whole entry): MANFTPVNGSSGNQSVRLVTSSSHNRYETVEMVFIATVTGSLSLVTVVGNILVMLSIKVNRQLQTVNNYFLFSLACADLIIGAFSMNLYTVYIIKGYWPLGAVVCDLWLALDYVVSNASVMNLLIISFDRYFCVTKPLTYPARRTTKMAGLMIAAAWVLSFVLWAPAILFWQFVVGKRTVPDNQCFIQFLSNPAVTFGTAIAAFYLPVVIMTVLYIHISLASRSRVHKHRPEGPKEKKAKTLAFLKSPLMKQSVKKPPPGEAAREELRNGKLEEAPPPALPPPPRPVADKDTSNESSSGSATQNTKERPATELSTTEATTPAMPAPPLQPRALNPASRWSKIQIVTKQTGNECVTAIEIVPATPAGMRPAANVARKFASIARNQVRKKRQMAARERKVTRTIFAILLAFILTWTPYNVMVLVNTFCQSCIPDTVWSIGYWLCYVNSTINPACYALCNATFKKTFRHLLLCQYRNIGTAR

D(1A) dopamine receptor = D(1A) dopamine receptor (Homo sapiens, UniProt P21728)
Sequence of D(1A) dopamine receptor (P21728 whole entry): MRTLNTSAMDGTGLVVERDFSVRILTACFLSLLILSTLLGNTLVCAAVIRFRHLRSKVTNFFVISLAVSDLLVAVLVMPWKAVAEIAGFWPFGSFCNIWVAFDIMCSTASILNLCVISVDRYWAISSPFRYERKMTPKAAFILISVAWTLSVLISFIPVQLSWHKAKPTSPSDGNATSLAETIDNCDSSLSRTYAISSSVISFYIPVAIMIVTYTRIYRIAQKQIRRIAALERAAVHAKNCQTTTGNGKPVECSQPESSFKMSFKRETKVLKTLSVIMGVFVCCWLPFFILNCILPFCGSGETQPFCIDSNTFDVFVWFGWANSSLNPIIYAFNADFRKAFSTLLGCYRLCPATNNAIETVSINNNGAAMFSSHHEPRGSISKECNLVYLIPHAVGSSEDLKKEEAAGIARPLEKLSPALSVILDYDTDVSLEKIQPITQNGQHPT

[4] = target: T3, Alpha-1A adrenergic receptor (Homo sapiens, UniProt P35348)
T3 sequence (P35348 whole entry): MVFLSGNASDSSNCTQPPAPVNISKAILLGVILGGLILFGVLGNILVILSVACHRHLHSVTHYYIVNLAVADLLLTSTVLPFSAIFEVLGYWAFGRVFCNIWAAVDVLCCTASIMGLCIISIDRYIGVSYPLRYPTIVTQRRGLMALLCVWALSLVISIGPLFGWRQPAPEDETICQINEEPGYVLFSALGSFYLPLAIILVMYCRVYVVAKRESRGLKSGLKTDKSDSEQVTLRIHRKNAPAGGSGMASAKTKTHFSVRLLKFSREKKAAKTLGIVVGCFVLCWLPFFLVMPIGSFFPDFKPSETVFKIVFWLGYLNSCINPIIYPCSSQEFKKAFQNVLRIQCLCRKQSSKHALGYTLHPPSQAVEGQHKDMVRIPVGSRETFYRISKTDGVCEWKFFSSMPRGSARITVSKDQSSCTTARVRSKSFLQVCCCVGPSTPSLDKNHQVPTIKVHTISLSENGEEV

[5] = target: T4, Alpha-2A adrenergic receptor (Homo sapiens, UniProt P08913)
T4 sequence (P08913 whole entry): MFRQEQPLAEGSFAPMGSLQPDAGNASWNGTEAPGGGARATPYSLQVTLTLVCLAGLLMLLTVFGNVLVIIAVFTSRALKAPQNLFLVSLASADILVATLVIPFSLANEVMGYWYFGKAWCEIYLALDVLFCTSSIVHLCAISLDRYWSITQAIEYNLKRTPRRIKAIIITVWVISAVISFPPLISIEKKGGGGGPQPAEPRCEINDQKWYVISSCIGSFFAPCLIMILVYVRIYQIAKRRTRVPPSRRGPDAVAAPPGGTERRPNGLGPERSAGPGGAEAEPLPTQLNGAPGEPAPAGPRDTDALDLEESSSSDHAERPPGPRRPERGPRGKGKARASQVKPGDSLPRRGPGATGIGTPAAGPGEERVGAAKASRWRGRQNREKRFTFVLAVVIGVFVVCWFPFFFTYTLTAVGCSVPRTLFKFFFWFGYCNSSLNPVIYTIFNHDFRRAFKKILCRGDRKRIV

[6] = target: T5, Prostaglandin G/H synthase 1 (Rattus norvegicus, UniProt Q63921); assay type: functional
T5 sequence (Q63921 whole entry): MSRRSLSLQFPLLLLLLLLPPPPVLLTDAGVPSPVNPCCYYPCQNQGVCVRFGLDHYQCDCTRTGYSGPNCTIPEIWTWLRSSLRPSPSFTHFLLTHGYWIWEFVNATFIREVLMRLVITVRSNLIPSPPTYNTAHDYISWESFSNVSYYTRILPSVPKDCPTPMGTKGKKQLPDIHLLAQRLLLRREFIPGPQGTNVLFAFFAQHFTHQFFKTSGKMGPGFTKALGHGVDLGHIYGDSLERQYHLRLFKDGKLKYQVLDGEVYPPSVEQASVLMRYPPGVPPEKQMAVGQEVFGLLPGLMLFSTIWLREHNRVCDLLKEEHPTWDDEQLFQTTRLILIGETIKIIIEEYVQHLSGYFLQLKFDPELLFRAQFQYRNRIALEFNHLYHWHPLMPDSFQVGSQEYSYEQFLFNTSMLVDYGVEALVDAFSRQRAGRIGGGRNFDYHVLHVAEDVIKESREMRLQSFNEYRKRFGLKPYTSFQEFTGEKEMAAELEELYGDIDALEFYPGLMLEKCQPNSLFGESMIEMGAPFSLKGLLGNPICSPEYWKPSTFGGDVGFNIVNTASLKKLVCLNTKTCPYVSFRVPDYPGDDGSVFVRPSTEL

[7] = target: Beta-1 adrenergic receptor (Homo sapiens, UniProt P08588); assay type: functional, cell-based
Sequence of Beta-1 adrenergic receptor (P08588 whole entry): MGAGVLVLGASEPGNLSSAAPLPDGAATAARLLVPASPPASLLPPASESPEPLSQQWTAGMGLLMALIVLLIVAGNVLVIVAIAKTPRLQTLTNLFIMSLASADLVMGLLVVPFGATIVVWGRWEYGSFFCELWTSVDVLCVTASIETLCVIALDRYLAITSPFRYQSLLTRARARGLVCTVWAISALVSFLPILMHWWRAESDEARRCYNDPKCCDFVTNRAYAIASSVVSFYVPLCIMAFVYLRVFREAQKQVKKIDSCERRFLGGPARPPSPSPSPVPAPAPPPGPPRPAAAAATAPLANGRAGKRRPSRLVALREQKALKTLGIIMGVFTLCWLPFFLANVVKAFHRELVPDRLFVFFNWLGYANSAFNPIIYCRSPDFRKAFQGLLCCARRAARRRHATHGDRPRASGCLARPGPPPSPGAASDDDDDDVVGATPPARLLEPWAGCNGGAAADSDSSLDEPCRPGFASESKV
Also: assay procedure not described here.

Sequence of Rod cGMP-specific 3',5'-cyclic phosphodiesterase subunit alpha (P16499 whole entry): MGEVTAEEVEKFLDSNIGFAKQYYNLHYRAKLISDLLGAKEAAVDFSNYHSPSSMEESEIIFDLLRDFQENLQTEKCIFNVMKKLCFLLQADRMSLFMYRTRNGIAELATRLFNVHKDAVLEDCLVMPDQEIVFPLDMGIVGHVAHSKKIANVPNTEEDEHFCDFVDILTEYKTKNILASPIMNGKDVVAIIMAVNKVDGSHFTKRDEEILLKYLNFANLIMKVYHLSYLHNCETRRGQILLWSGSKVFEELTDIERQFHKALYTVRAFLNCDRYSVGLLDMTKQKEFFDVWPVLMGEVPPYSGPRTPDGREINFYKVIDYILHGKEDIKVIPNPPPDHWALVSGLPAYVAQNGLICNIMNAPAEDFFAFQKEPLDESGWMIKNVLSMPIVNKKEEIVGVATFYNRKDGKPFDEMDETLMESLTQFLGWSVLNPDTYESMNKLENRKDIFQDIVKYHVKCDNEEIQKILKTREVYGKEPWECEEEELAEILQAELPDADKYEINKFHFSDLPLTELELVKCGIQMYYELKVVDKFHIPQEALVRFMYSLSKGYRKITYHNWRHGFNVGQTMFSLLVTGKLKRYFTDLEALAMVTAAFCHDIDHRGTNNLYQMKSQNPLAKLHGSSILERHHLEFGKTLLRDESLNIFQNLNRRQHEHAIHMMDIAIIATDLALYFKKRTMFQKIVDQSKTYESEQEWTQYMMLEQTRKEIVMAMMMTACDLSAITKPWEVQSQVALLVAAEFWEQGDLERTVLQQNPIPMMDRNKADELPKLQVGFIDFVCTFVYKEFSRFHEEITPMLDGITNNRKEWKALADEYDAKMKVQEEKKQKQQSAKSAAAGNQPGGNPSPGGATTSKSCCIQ
Sequence of D(1B) dopamine receptor (P21918 whole entry): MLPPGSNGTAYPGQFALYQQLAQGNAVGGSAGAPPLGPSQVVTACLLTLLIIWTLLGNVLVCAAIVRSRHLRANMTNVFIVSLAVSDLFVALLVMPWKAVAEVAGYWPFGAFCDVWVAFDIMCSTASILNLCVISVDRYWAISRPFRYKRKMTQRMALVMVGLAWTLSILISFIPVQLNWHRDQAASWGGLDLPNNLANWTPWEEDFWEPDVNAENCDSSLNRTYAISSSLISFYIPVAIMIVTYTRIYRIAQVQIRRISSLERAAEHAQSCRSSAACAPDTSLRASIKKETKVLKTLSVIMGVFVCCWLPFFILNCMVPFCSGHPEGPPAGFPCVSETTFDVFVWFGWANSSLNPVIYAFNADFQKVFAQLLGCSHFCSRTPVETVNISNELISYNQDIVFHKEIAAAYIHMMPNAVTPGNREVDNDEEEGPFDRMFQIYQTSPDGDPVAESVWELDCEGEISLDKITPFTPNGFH

## CN1CCN(C2=Nc3ccccc3Oc3ccc(Cl)cc32)CC1 [LOXAPINE]
[1]
  AC50: > 10 µM
D(1B) dopamine receptor
  AC50: 0.248 µM
Substance-K receptor
  AC50: > 10 µM
[2]
  AC50: 1.04 µM
[3]
  AC50: 3.73 µM

## O=[N+]([O-])c1ccc(O)c2ncccc12 [NITROXOLINE]
D(1A) dopamine receptor
  AC50: > 30 µM
[4]
  AC50: > 30 µM

## C=C1CC[C@H](O)C/C1=C/C=C1\CCC[C@]2(C)[C@@H]([C@H](C)/C=C/[C@H](C)C(C)C)CC[C@@H]12 [ERGOCALCIFEROL]
D(1A) dopamine receptor
  AC50: > 30 µM
[4]
  AC50: 24.7 µM

## C[C@H](Cc1cc2c(c(C(N)=O)c1)N(CCCO)CC2)NCCOc1ccccc1OCC(F)(F)F [SILODOSIN]
[5]
  AC50: 6.2 µM

## Clc1ccc(C(Cn2ccnc2)OCc2ccsc2Cl)c(Cl)c1 (stereo not given) [TIOCONAZOLE]
[6]
  AC50: 14 µM

## OC1(c2ccc(Cl)cc2)c2ccccc2C2=NCCN21 (stereo not given) [MAZINDOL]
[1]
  AC50: > 10 µM
D(1B) dopamine receptor
  AC50: > 10 µM
Substance-K receptor
  AC50: > 10 µM
[2]
  AC50: > 10 µM
[3]
  AC50: > 10 µM

## CC(C)COCC(CN(Cc1ccccc1)c1ccccc1)N1CCCC1 (stereo not given) [BEPRIDIL]
[6]
  AC50: > 30 µM

## Cc1cc(C(C)(C)C)cc(C)c1CC1=NCCN1 [XYLOMETAZOLINE]
[7]
  AC50: > 30 µM
[5]
  AC50: 0.005 µM

## CC(C(=O)O)c1ccc(CC2CCCC2=O)cc1 (stereo not given) [LOXOPROFEN]
[7]
  AC50: > 30 µM
